# Source: article PMC5955414, “PKD1 is a potential biomarker and therapeutic target in triple-negative breast cancer” (Oncotarget, 2018)
# Assays:
# [1] = target: T1, PKD3 (Homo sapiens, UniProt O94806); set-up: method as in PMID 20497126, PMID 20442301, PMID 18829454, PMID 21617763, PMID 20444281; conditions: cited from earlier work
# T1 sequence (O94806 1-890): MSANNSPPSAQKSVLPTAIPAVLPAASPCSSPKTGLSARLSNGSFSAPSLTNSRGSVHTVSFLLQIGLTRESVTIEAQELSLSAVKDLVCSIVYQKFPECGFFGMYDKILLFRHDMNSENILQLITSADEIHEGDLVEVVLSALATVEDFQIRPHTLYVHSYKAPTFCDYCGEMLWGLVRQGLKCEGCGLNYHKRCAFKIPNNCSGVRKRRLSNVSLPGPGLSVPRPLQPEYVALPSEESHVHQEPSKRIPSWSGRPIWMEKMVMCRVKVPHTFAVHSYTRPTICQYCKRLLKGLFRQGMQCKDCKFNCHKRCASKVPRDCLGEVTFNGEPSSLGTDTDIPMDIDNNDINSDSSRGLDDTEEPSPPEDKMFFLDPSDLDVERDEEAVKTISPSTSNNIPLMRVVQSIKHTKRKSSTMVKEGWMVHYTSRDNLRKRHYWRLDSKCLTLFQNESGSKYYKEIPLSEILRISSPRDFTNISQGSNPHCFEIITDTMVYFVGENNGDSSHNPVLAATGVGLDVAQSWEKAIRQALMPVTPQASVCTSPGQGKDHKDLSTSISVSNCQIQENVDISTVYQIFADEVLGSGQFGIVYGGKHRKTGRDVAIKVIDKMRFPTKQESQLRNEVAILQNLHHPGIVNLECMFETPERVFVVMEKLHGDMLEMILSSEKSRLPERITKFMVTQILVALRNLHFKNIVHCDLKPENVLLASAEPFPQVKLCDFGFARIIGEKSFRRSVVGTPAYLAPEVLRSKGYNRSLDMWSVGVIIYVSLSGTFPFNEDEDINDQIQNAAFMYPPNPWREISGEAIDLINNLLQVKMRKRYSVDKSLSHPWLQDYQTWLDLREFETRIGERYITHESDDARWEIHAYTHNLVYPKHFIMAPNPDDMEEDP
# [2] = tested on: MCF7 chemoresistant xenografts; set-up: method as in PMID 26895471; conditions: cited from earlier work
# [3] = target: T1, PKD3; assay: In vitro kinase inhibitory activity, PKD3; assay type: biochemical; conditions: AB9275: at concentrations inhibiting PKD1; compared with PKD1
# Method: (§1) Supplementary Figure 5: Specificity of the AB9275 PKD1 inhibitor. (A) Comparison of in vitro kinase inhibitory activities
# (§2) between AB9275 and different PKD1 inhibitors.
# (§3) CRT0066101. Other IC50s were obtained from the literature (as indicated). (B) Kinome selectivity profile of the AB9275 compound. The
# (§4) CA). AB9275 was screened at 1 μM.
# [4] = target: T2, PKCα (Homo sapiens, UniProt P17252); assay: In vitro kinase inhibitory activity, PKCα; assay type: biochemical; conditions: AB9275: at concentrations inhibiting PKD1
# Method: as §1, §2, §3, §4
# [5] = target: T2, PKCα; set-up: method as in PMID 20497126, PMID 20442301, PMID 18829454, PMID 21617763, PMID 20444281; conditions: cited from earlier work
# [6] = target: T3, PKCβ (Homo sapiens, UniProt P05771); assay: In vitro kinase inhibitory activity, PKCβ; assay type: biochemical; conditions: AB9275: at concentrations inhibiting PKD1
# Method: as §1, §2, §3, §4
# [7] = target: T3, PKCβ; set-up: method as in PMID 20497126, PMID 20442301, PMID 18829454, PMID 21617763, PMID 20444281; conditions: cited from earlier work
# T3 sequence (P05771 whole entry, species assumed): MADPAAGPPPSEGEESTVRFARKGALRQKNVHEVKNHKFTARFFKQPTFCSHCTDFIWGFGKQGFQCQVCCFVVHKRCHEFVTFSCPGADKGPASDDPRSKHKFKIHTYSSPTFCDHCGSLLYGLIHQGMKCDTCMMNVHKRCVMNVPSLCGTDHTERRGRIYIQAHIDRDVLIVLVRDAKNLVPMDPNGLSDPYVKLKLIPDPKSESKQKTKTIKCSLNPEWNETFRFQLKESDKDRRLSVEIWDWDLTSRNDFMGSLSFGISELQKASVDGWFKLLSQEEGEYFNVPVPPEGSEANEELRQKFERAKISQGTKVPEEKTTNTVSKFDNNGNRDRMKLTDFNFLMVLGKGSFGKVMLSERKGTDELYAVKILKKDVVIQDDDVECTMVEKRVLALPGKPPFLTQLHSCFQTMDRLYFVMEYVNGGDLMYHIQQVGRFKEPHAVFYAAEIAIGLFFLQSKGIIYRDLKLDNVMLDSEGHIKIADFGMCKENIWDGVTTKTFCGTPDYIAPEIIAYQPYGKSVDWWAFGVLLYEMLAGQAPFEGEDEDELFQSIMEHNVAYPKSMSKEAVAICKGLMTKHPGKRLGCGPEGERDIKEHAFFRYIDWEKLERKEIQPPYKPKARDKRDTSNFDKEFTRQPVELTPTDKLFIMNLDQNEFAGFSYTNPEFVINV
compound,measurement,setting,value
O=C1NCCCc2c1oc1ccc(O)cc21 [CID755673],Inhibition of PKD3 relative to PKD1 (literature),[1],similarly inhibit PKD1 and PKD3
CC[C@@H](N)CNc1ccnc(-c2cc(-c3cnn(C)c3)ccc2O)n1.Cl.Cl [CRT0066101],Tumor growth of MCF7 chemoresistant xenografts in vivo,[2],able to inhibit tumor growth
same,Inhibition of PKD3 relative to PKD1 (literature),[1],similarly inhibit PKD1 and PKD3
same,Inhibition of PKD3 in vitro,[3],more potent against PKD3
Cn1c2ccccc2c2c3c(c4c5ccccc5n(CCC#N)c4c21)CNC3=O [Gö6976],Inhibition of PKCα in vitro,[4],strongly inhibited
same,Inhibition of PKCα (literature),[5],also inhibits
same,Inhibition of PKCβ in vitro,[6],strongly inhibited
same,Inhibition of PKCβ (literature),[7],also inhibits
CRT5,Inhibition of PKD3 relative to PKD1 (literature),[1],similarly inhibit PKD1 and PKD3
